{"source": "patent US11850266B2", "about": "“Cardiomyocytes and compositions and methods for producing the same” (President and Fellows of Harvard College, priority 2019, dated 2023)", "key": {"[1]": {"system": "iPSC-derived cardiomyocytes", "test": "Muscular thin film (MTF) contractile force", "type": "cell-based, human", "conditions": "Torin1 200 nM 7 days, MTFs, FIG. 2F", "method": "Gelatin muscular thin films (MTFs) were prepared as previously described (32). Square 22×22 mm glass coverslips were covered with low adhesive tape (Patco 5560 Removable Protective Film Tape), and an Epilog Mini 24 laser engraving instrument was used to cut the tape such that two inner rectangles (3×10 mm for cantilever region and 7×10 mm for base region) were surrounded by an outer border. The larger inner rectangle was peeled away and this region was activated with 0.1 M NaOH for 5 minutes, then 0.5% (3-aminopropyl)triethoxysilane (APTES) in 95% ethanol for 5 minutes, then 0.5% glutaraldehyde solution for 30 minutes. The glass coverslips were then rinsed and dried. Next, the tape covering the smaller inner rectangle region was peeled away. A 20% w/v stock gelatin (175 g bloom, Type A, Sigma) in distilled water solution was dissolved at 65° C. for 30 minutes and an 8% w/v stock microbial transglutaminase (MTG) (Ajinomoto) in distilled water solution was dissolved at 37° C. for 30 minutes. […] The radius of curvature for each MTF was quantified using ImageJ. Thickness of the MTF was determined using a Zeiss LSM confocal microscope. […] The maximum and average systolic, diastolic, and twitch (systolic—diastolic stress) stresses were calculated for each MTF."}, "[2]": {"system": "iPSC-derived cardiomyocytes", "test": "Immunocytochemistry, sarcomere length", "type": "cell-based, human", "conditions": "versus control, BJRiPS-CMs, FIG. 2H", "method": "Cells were dissociated from 12 well plates after differentiation with 0.1% trypsin-EDTA and replated into Geltrex-coated 4-chamber microscope slides. Cells were fixed in 4% paraformaldehyde then permeabilized with 0.5% Triton X-100. After blocking with 5% BSA, cells were incubated with primary antibodies (Table 2) for 30 minutes at room temperature followed by incubation with the secondary antibody (Table 2) for 45 minutes at room temperature in the dark. After washing with phosphate buffered saline (PBS), Vectashield mounting agent with DAPI (for slides) or DAPI (for plates) was applied and cells were visualized with a confocal microscope (Zeiss LSM 700). Muscular thin films (MTFs) were stained in a similar manner except DAPI (1 μg/ml) was applied for 5 minutes before rinsing and transferring MTFs into PBS until imaging."}}}
{"compound": "CCC(=O)N1CCN(c2ccc(-n3c(=O)ccc4cnc5ccc(-c6cnc7ccccc7c6)cc5c43)cc2C(F)(F)F)CC1", "note": "[Torin1]", "values": [{"measurement": "relative maximum systolic force versus control", "setting": "[1]", "value": "~2", "unit": "fold"}, {"measurement": "sarcomere length", "setting": "[2]", "value": "no differences"}]}
